The assay is described as follows: cell viability loss from compound exposure – absorbance, serum-free and serum media, set 2, cytotoxicity control for LYPLA1 inhibitor project, late-stage follow-up (AID 504510). Conditions: serum-free vs serum media.

Active and inactive are the calls of the source. The rule behind the calls is not given here.

Turning to `CCC1CCCCN1C(=O)n1ncc(C(O)(c2ccccc2)c2ccccc2)n1` (centres undefined), the CC50 is, setting by setting: (serum-free media) > 50 µM (inactive); (with FCS) > 50 µM (inactive).

As for `COCC1CCCCN1C(=O)n1ncc(C(O)(c2ccccc2)c2ccccc2)n1` (centres undefined), the CC50 by setting is: (serum-free media) > 50 µM (inactive); (with FCS) > 50 µM (inactive).

For orientation: CC50 means the concentration that lowers cell viability or growth by half.

The values above are taken from PubChem BioAssay AID504510 (The Scripps Research Institute Molecular Screening Center, 2011).
